Measurements published in US20160287554A1, “Small Molecule Metal-Activated Protein Inhibition” (University of South Florida, priority 2015, published 2016).
Values joined by “and” are separate entries in the source; they are usually repeats but may differ in a detail not shown here. Equal entries are not always repeated.

Target: 20S proteasome (Homo sapiens, UniProt P28074)
Assay: 20S proteasome chymotrypsin-like activity assay, cleavage of suc-leu-leu-val-tyr-AMC (fluorescence), with or without copper chloride
Type: biochemical
Settings: for inhibition against the proteasome: one-dose experiments, 10 μM compound in the presence of 1 μM copper
Text: Pro-drug compounds, according to embodiments of the invention, include: 3,4-dihydroxybenzoic acid; galloflavin; 2-{[(carbamoylsulfanyl)acetyl]amino}benzoic acid; 6,7-Dihydroxycoumaranone; 3,6-bis(hydroxymethyl)pyridazin-4(1H)-one; and 4′,5,7-trihydroxyisoflavone, as shown in FIG. 1. These compounds, and analogs thereof, can act individually or can be used in combination. These compounds, and similar compounds, are capable of binding copper ions and facilitating inhibition of the proteasome. These compounds, and similar compounds, are safe and efficacious theranostics and/or drugs to detect and/or treat cancers. These compounds are from the NCI Diversity Set 3. Preliminary identification of these compounds as potential Cu-complexes with the proteasome was conducted using an in silico screening method, according to an embodiment of the invention, for example, with graphic representations of the calculated docking of the pro-drugs of FIG. 1 with copper ion and the proteasome, as shown in FIGS. 2-7. The modeling method indicates the potential of candidates as the pro-drugs, which are tested experimentally to confirm their efficiency using an in vitro experimental assay that tests for inhibition of the chymotrypsin-like activity of the 20S proteasome.
A Beckman Coulter Biomek FX^P Lab Automation Workstation was used for automating the assays. A Perkin Elmer EnVision 2102 multilabel plate reader was used to read the plates by fluorescence measurements. Assays were performed in 384 well black Nunc plates. Each compound (2 μl in DMSO), when tested without copper chloride was added to 28 μl of buffer (50 mM Tris at pH 7.6 and 37° C.), with 20 μM, 10 μl 20S proteasome and 10 μl of suc-leu-leu-val-tyr-AMC as the substrate (purchased from Boston Biochem), and the rate of substrate cleavage by 20S proteasome activity was determined. In the presence of copper, the buffer amount was decreased to 25 μl and 3 μl copper chloride was used for chelation with the compound for testing in the presence of copper. To allow chelation of copper to the compound, the plate was allowed to sit for 40 minutes with gentle shaking. The overall volume per well was held at 50 μL. The compounds and substrate were initially dissolved in 100% DMSO, but the final concentration of DMSO per well plate was reduced to less than 2% following subsequent dilutions. Plates were incubated at 37° C. for 2 hours. For dose response curves, the concentrations of copper chloride and a pro-drug compound, were varied to get optimal activity. The plates were read with 340 nm excitation and 460 nm emission using the plate reader. All liquid transfers to the plates were automated using the Biomek workstation.

[1] = NSC 37408 0.01 uM, CuCl2 0.01 uM
[2] = NSC 37408 0.01 uM, CuCl2 0.05 uM
[3] = NSC 37408 0.01 uM, CuCl2 0.1 uM
[4] = NSC 37408 0.01 uM, CuCl2 0.5 uM
[5] = NSC 37408 0.02 uM, CuCl2 0.01 uM
[6] = NSC 37408 0.02 uM, CuCl2 0.05 uM
[7] = NSC 37408 0.02 uM, CuCl2 0.1 uM
[8] = NSC 37408 0.02 uM, CuCl2 0.5 uM
[9] = NSC 37408 0.2 uM, CuCl2 0.01 uM
[10] = NSC 37408 0.2 uM, CuCl2 0.05 uM
[11] = CuCl2 0.01 uM alone (NSC 37408 0 uM)
[12] = CuCl2 0.05 uM alone (NSC 37408 0 uM)
[13] = CuCl2 0.1 uM alone (NSC 37408 0 uM)
[14] = CuCl2 0.5 uM alone (NSC 37408 0 uM)
[15] = CuCl2 1 uM alone (NSC 37408 0 uM)
[16] = CuCl2 10 uM alone (NSC 37408 0 uM)

6,7-dihydroxycoumaranone [NSC 37408]
% Activity (NSC 37408 0.01 uM, CuCl2 0 uM): 112.6213% and 99.65% | Average % inhibition (NSC 37408 0.01 uM, CuCl2 0 uM): −6.135% | % Activity [1]: 90.87% and 88.81% | Average % inhibition [1]: 10.1605% | % Activity [2]: 86.05% and 85.2009% | Average % inhibition [2]: 14.38% | % Activity [3]: 72.84% and 76.28% | Average % inhibition [3]: 25.44% | % Activity [4]: 54.66% and 61.76% | Average % inhibition [4]: 41.79% | % Activity (NSC 37408 0.01 uM, CuCl2 1 uM): 44.58% and 55.7695% | Average % inhibition (NSC 37408 0.01 uM, CuCl2 1 uM): 49.82% | % Activity (NSC 37408 0.01 uM, CuCl2 10 uM): 19.49% and 20.5% | Average % inhibition (NSC 37408 0.01 uM, CuCl2 10 uM): 80.0042% | % Activity (NSC 37408 0.02 uM, CuCl2 0 uM): 96.06% and 94.02% | Average % inhibition (NSC 37408 0.02 uM, CuCl2 0 uM): 4.963% | % Activity [5]: 88.1% and 90.5198% | Average % inhibition [5]: 10.69% | % Activity [6]: 68.1% and 55.31% | Average % inhibition [6]: 38.29% | % Activity [7]: 65.88% and 61.48% | Average % inhibition [7]: 36.32% | % Activity [8]: 51.0064% and 59.2161% | Average % inhibition [8]: 44.89% | % Activity (NSC 37408 0.02 uM, CuCl2 1 uM): 56.05% and 43.65% | Average % inhibition (NSC 37408 0.02 uM, CuCl2 1 uM): 50.1481% | % Activity (NSC 37408 0.02 uM, CuCl2 10 uM): 17.83% and 17.5873% | Average % inhibition (NSC 37408 0.02 uM, CuCl2 10 uM): 82.29% | % Activity (NSC 37408 0.2 uM, CuCl2 0 uM): 105.3933% and 82.75% | Average % inhibition (NSC 37408 0.2 uM, CuCl2 0 uM): 5.927% | % Activity [9]: 94.36% and 76.52% | Average % inhibition [9]: 14.5582% | % Activity [10]: 85.2901% and 82.94% | Average % inhibition [10]: 15.89% | % Activity (NSC 37408 0.2 uM, CuCl2 0.1 uM): 73.85% and 60.05% | Average % inhibition (NSC 37408 0.2 uM, CuCl2 0.1 uM): 33.05% | % Activity (NSC 37408 0.2 uM, CuCl2 0.5 uM): 64.18% and 61.99% | Average % inhibition (NSC 37408 0.2 uM, CuCl2 0.5 uM): 36.91% | % Activity (NSC 37408 0.2 uM, CuCl2 1 uM): 56.85% and 54.95% | Average % inhibition (NSC 37408 0.2 uM, CuCl2 1 uM): 44.1% | % Activity (NSC 37408 0.2 uM, CuCl2 10 uM): 19.46% and 18.13% | Average % inhibition (NSC 37408 0.2 uM, CuCl2 10 uM): 81.2011% | % Activity (NSC 37408 1 uM, CuCl2 0 uM): 103.1804% and 90.54% | Average % inhibition (NSC 37408 1 uM, CuCl2 0 uM): 3.138% | % Activity (NSC 37408 1 uM, CuCl2 0.01 uM): 72.59% and 75.01% | Average % inhibition (NSC 37408 1 uM, CuCl2 0.01 uM): 26.2% | % Activity (NSC 37408 1 uM, CuCl2 0.05 uM): 66.45% and 67.81% | Average % inhibition (NSC 37408 1 uM, CuCl2 0.05 uM): 32.87% | % Activity (NSC 37408 1 uM, CuCl2 0.1 uM): 65.45% and 59.72% | Average % inhibition (NSC 37408 1 uM, CuCl2 0.1 uM): 37.4167% | % Activity (NSC 37408 1 uM, CuCl2 0.5 uM): 56.12% and 54.11% | Average % inhibition (NSC 37408 1 uM, CuCl2 0.5 uM): 44.88% | % Activity (NSC 37408 1 uM, CuCl2 1 uM): 57.76% and 41.6248% | Average % inhibition (NSC 37408 1 uM, CuCl2 1 uM): 50.31% | % Activity (NSC 37408 1 uM, CuCl2 10 uM): 14.11% and 16.23% | Average % inhibition (NSC 37408 1 uM, CuCl2 10 uM): 84.83% | % Activity (NSC 37408 2 uM, CuCl2 0 uM): 97.24% and 74.12% | Average % inhibition (NSC 37408 2 uM, CuCl2 0 uM): 14.32% | % Activity (NSC 37408 2 uM, CuCl2 0.01 uM): 87.55% and 75.89% | Average % inhibition (NSC 37408 2 uM, CuCl2 0.01 uM): 18.28% | % Activity (NSC 37408 2 uM, CuCl2 0.05 uM): 61.5% and 61.91% | Average % inhibition (NSC 37408 2 uM, CuCl2 0.05 uM): 38.3% | % Activity (NSC 37408 2 uM, CuCl2 0.1 uM): 62.98% and 55.45% | Average % inhibition (NSC 37408 2 uM, CuCl2 0.1 uM): 40.79% | % Activity (NSC 37408 2 uM, CuCl2 0.5 uM): 50.79% and 47.45% | Average % inhibition (NSC 37408 2 uM, CuCl2 0.5 uM): 50.8784% | % Activity (NSC 37408 2 uM, CuCl2 1 uM): 41.16% and 35.42% | Average % inhibition (NSC 37408 2 uM, CuCl2 1 uM): 61.71% | % Activity (NSC 37408 2 uM, CuCl2 10 uM): 15.32% and 15.04% | Average % inhibition (NSC 37408 2 uM, CuCl2 10 uM): 84.82% | % Activity (NSC 37408 20 uM, CuCl2 0 uM): 99.79% and 91.1158% | Average % inhibition (NSC 37408 20 uM, CuCl2 0 uM): 4.548% | % Activity (NSC 37408 20 uM, CuCl2 0.01 uM): 71.91% and 89.68% | Average % inhibition (NSC 37408 20 uM, CuCl2 0.01 uM): 19.21% | % Activity (NSC 37408 20 uM, CuCl2 0.05 uM): 54.92% and 76.06% | Average % inhibition (NSC 37408 20 uM, CuCl2 0.05 uM): 34.51% | % Activity (NSC 37408 20 uM, CuCl2 0.1 uM): 49.04% and 30.46% | Average % inhibition (NSC 37408 20 uM, CuCl2 0.1 uM): 60.25% | % Activity (NSC 37408 20 uM, CuCl2 0.5 uM): 36.6% and 25.36% | Average % inhibition (NSC 37408 20 uM, CuCl2 0.5 uM): 69.02% | % Activity (NSC 37408 20 uM, CuCl2 1 uM): 25.4789% and 22.77% | Average % inhibition (NSC 37408 20 uM, CuCl2 1 uM): 75.88% | % Activity (NSC 37408 20 uM, CuCl2 10 uM): 7.426% and 7.089% | Average % inhibition (NSC 37408 20 uM, CuCl2 10 uM): 92.74% | IC50 (dose-response assay, in presence of 100 nM copper (FIG. 13)): 3000 nM | capacity to inhibit the proteasome compared with copper chloride alone (first round of screening (Table 1), compound complexed with copper): better capacity to inhibit the proteasome than copper chloride alone | inhibition against the proteasome: superior inhibition | percent inhibition in the presence of copper versus compound alone (sub-micromolar copper, triplicate (FIG. 13)): dramatic improvement of percent inhibition | inhibition in the absence of copper ion (various concentrations, no copper (FIG. 10)): little if any inhibition

[Cl][Cu][Cl] [CuCl2, copper chloride, reference compound]
% Activity [11]: 116.1267% and 79.27% | Average % inhibition [11]: 2.302% | % Activity [12]: 92.35% and 88.54% | Average % inhibition [12]: 9.555% | % Activity [13]: 82.9012% and 74.33% | Average % inhibition [13]: 21.39% | % Activity [14]: 50.13% and 54.8853% | Average % inhibition [14]: 47.49% | % Activity [15]: 65.79% and 56.9% | Average % inhibition [15]: 38.65% | % Activity [16]: 21.19% and 16.25% | Average % inhibition [16]: 81.28% | EC50 (copper chloride alone, dose response (FIG. 11), read-out: EC50 of inhibitory effect on the % activity of the proteasome): 686 nM | inhibitory activity of copper absent the pro-drug (sub-micromolar copper concentration (FIG. 13)): no significant inhibitory activity

NC(=O)SCC(=O)Nc1ccccc1C(=O)O [compound 13345, 2-{[(carbamoylsulfanyl)acetyl]amino}benzoic acid]
inhibition against the proteasome: superior inhibition

O=C(O)c1ccc(O)c(O)c1 [compound 16631, 3,4-dihydroxybenzoic acid]
inhibition against the proteasome: superior inhibition

O=c1c(-c2ccc(O)cc2)coc2cc(O)cc(O)c12 [compound 36586, 4′,5,7-trihydroxyisoflavone]
inhibition against the proteasome: superior inhibition

O=c1oc2c(cc1O)oc(=O)c1cc(O)c(O)c(O)c12 [compound 107022, galloflavin]
inhibition against the proteasome: superior inhibition

O=c1cc(CO)[nH]nc1CO [compound 166900, 3,6-bis(hydroxymethyl)pyridazin-4(1H)-one]
inhibition against the proteasome: superior inhibition
